Measurements as given in patent US20250230124A1, “SMALL MOLECULE INHIBITORS OF ID PROTEINS” (MEMORIAL SLOAN-KETTERING CANCER CENTER, priority 2022, published 2025).

How the values were obtained:
DU145 cells = assay: Prostate cancer cell morphology, growth and death; type: cell-based; conditions: for outcome of treatment of DU145 cells: after six days; for effect on DU145 cells (health, proliferation): after three days
Method: Prostate cancer cell lines DU145 and PC3 (in 10% BCS) will be cultured in Ham's F12 (Gibco, Carlsbad, Calif.) medium containing 10% BCS (Hyclone, Logan, Utah) and appropriate antibiotics (pen/strep, fungizaone, and gentamycin (Invitrogen Inc., Carlsbad, Calif.). All cells will be cultured at 37° C. in a fully humidified atmosphere containing 5% CO2.
At 50% confluence, the cells will be treated with either 100 μM DMSO, AGX51, AGX-A, or a compound of the present technology. The cell morphology and growth will be monitored daily for 1 week by microscopy for changes in morphology or cell death. Apoptosis will be determined by measuring caspase 3 and caspase 7 activities using the Caspase-Glo 3/7 Assay system from Promega (Madison, Wis.).

LLC cancer cells = assay: Metastatic activity in LLC mouse model; type: in vivo; conditions: daily ip
Method: Thirty C57BL/6 mice will be implanted with 7.5×10^5 LLC cancer cells/animal. Seven days after implantation, 5M/5F per group will be treated daily ip for 25 days with dosing vehicle (DMSO), AGX51, AGX-A, or a compound of the present technology. Fourteen days after implantation, another group of 5M/5F animals will be treated daily ip for 18 days with 50 mg/kg of AGX51, another group of 5M/5F animals will be treated daily ip for 18 days with 50 mg/kg of AGX-A, and another group of 5M/5F animals will be treated daily ip for 18 days with a compound of the present technology. Tumors will be measured three times from Day 7 to 14. On Day 14, the tumors will be excised. The animals will be necropsied for the presence of lung metastases on day 32, 18 days post excision.

[1] = tested on: CD31-positive microvessels in Matrigel plugs; assay: Anti-angiogenic activity in VEGF-165 and FGF-2 treated Matrigel plugs; type: in vivo, mouse; conditions: for protection from new blood vessel formation: compared to vehicle control animals; for presence of endothelial cells in Matrigel plugs: mouse, in vivo
Method: VEGF-165 and FGF-2 treated Matrigel plugs will be implanted on Day 0 into C57BL/6 mice. Mice will be treated with either vehicle, AGX51, AGX-A, or a compound of the present technology. The AGX51, AGX-A, and compound of the present technology will be provided either in the plugs (25 μg/mg) or by daily ip treatment (30 or 100 mg/kg) for 10 days. Plugs will be harvested on Day 10, fixed and paraffin embedded. Three sections ([…] thickness) of each plug will be stained with an anti-CD31 antibody and counterstained with hematoxylin and eosin stain. CD31-positive microvessels will be counted for one entire cross-section per plug and the average micro-vessel density±SD vessels will be determined. Student's t-test will be used for statistical analysis.

cells = assay: Cell killing / cell viability assay; type: cell-based
Method: Cell viability assays. Cell lines will be seeded in a 96 well plate (5000 cells per well). After overnight incubation, cells will be treated with a compound of the present technology and incubated for 24 hours then MTT reagent (5 mg/mL) will be added per well and the cells will be incubated for four hours. Following incubation, media will be aspirated and 200 μL DMSO will be added per well. Absorbance will then be measured at 570 nm using a plate reader (Synergy 2, BioTek). Cell growth profiles will be determined by seeding 38,000 cells in a 24-well plate, in triplicate for each time point, and counting the cells on days 1, 3 and 5 after seeding, using trypan blue exclusion of dead cells.

[2] = tested on: cholangiocarcinoma PDX RomeP_PHCH_X_0008a; assay: Murine patient-derived xenograft model of cholangiocarcinoma, tumor volume; type: in vivo, mouse; conditions: NSG mice, 50 or 100 mg/kg p.o. BIDx5 x 4 weeks
Excerpt: An animal model of cholangiocarcinoma predictive of anti-cholangiocarcinoma drug efficacy in humans, as described in Mattar, M. et al. Establishing and Maintaining an Extensive Library of Patient-Derived Xenograft Models. Front Oncol. 2018 Feb.
• Mice: NSG females, 6-8 weeks old • PDX: RomeP_PHCH_X_0008a, serially transplanted sc with matrigel • Treatment Groups (at least 5 animals/group): treatments started when tumors reached 100 mm^3 (“Day 0” for each animal), dosed via oral gavage • Group 1. Saline with 10% by weight 2-hydroxypropyl-β-cyclodextrin (“Vehicle”), p.o. twice daily for 5 days per week (“BIDx5”) for 4 weeks (“×4 weeks”) • Group 2. AGX-A 50 mg/kg in Vehicle, p.o. BIDx5×4 weeks • Group 3. AGX-A 100 mg/kg in Vehicle, p.o. BIDx5×4 weeks • Group 4. AGX-502 50 mg/kg in Vehicle, p.o. BIDx5×4 weeks • Group 5. AGX-502 100 mg/kg in Vehicle, p.o. BIDx5×4 weeks.
Tumor volumes, weights, and clinical signs were monitored a minimum of twice per week for each animal in each group throughout the study. Mice were sacrificed by CO2 asphyxiation once the tumor volume exceeded 2000 mm^3 or body weight loss was higher than 10%. Upon completion of the experiment, tumors were harvested and processed for immunoblotting and/or immunohistochemistry assays.

ID1 = molecular target: T1, ID1 (Homo sapiens, UniProt P41134); assay: Activity against ID1 in cells (Western Blot); type: cell-based
T1 construct: endogenous in cells
T1 sequence (P41134 1-155): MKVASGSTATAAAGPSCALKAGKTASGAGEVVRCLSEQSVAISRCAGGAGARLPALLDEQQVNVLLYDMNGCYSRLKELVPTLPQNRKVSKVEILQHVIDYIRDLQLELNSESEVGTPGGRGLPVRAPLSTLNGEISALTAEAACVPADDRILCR

activity against ID1 in cells (ID1)	activity by Western Blot (ID1)	Compound	outcome of treatment of DU145 cells (DU145 cells)	effect on DU145 cells (health, proliferation) (DU145 cells)	lung metastases (LLC cancer cells)	protection from new blood vessel formation [1]	presence of endothelial cells in Matrigel plugs [1]	time to complete cell killing (cells) [h]	anti-cancer efficacy (tumor volume) [2]	activity by cell killing (cells)	IC50 (24 h) (cells; 24 h, initial testing)
–	–	CCC(=O)N(CCC(c1ccc2c(c1)OCO2)c1ccccc1OC)Cc1ccccc1 (racemic) [AGX51, N-(3-(benzo[d][1,3]dioxol-5-yl)-3-(2-methoxyphenyl)propyl)-N-benzylpropionamide]	cell death	pronounced effect	profoundly diminish	significant protection	significantly decrease	–	–	–	–
–	–	COc1ccccc1C(CCNCc1ccccc1)c1ccc(OC(C)C)cc1 (centres unmarked) [AGX-A, N-benzyl-3-(4-isopropoxyphenyl)-3-(2-methoxyphenyl)propan-1-amine]	cell death	pronounced effect	profoundly diminish	significant protection	significantly decrease	≤ 24	–	–	–
significant activity	very active	COc1ccccc1C(CCNC(C)c1ccccc1)c1ccc(OC(C)C)cc1 (centres unmarked) [AGX-502]	–	–	–	–	–	≤ 8	dose-dependent anti-cancer efficacy	very active	significantly favorable
